ChEMBL document CHEMBL1158075, “Brominated cyclodipeptides from the marine sponge Geodia barretti as selective 5-HT ligands” (J Nat Prod, 2006)

Experiments:
[1] = biological target: T1, 5-hydroxytryptamine receptor 2C (Homo sapiens, UniProt P28335); assay: Displacement of [N-methyl-3H]LSD from human 5HT2C receptor expressed in HEK293 cells; type: cell-based
T1 sequence (P28335 whole entry): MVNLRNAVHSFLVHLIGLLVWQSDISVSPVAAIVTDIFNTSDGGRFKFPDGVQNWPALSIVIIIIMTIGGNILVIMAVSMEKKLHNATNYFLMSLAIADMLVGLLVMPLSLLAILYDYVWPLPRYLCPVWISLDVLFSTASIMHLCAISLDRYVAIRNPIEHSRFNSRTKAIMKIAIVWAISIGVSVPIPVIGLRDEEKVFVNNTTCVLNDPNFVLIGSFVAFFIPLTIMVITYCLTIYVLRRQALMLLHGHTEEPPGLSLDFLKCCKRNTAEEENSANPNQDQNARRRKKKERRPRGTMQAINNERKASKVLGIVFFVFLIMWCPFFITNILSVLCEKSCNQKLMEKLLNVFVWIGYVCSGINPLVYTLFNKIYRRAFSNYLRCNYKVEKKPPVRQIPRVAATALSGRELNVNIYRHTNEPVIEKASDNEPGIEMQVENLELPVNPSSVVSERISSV

[2] = biological target: 5-hydroxytryptamine receptor 2A (Homo sapiens, UniProt P28223); assay: biochemical; type: cell-based, HEK293
5-hydroxytryptamine receptor 2A, sequence (P28223 whole entry): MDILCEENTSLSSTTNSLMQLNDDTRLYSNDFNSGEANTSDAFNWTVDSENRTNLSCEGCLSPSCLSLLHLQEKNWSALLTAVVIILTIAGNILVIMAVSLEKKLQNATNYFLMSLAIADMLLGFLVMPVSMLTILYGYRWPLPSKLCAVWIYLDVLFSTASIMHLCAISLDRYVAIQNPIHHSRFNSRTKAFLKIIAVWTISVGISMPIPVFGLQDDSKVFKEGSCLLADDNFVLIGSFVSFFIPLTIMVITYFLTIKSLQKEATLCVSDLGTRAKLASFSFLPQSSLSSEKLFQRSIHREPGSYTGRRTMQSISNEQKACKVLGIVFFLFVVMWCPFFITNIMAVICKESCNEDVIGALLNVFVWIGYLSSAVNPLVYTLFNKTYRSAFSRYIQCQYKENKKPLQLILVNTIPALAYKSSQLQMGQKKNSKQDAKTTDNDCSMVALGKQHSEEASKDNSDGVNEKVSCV

[3] = biological target: T2, 5-hydroxytryptamine receptor 4 (Homo sapiens, UniProt Q13639); assay: Displacement of [N-methyl-3H]GR-113808 from human 5HT4 receptor expressed in HEK293 cells; type: cell-based
T2 sequence (Q13639 whole entry): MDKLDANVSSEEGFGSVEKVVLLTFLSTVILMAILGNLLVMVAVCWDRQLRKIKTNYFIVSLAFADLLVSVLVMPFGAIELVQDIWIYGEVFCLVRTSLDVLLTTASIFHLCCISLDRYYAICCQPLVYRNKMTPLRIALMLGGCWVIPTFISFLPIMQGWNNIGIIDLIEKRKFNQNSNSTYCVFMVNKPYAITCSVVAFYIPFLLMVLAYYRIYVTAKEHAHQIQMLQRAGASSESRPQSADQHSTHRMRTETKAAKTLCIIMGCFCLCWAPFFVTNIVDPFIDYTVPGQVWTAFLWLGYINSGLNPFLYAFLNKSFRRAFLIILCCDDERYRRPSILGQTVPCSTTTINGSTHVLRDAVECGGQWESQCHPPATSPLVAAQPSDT

[4] = biological target: T2, 5-hydroxytryptamine receptor 4; assay: Binding affinity to human 5HT4 receptor expressed in HEK293 cells by saturation binding method; type: cell-based

SMILES	Ki [1]	Ki [2]	Ki [3]	Kd [4]
NC(N)=NCCC[C@@H]1NC(=O)[C@H](Cc2c[nH]c3cc(Br)ccc23)NC1=O	4630 nM			
CC[C@@H](CO)NC(=O)[C@@H]1C=C2c3cccc4c3c(cn4C)C[C@H]2N(C)C1 [METHYSERGIDE]	2.5 nM			
N=C(N)NCCC[C@@H]1NC(=O)/C(=C/c2c[nH]c3cc(Br)ccc23)NC1=O [BARETTIN]	340 nM	1930 nM	1910 nM	
[3H]C([3H])([3H])n1cc(C(=O)OCC2CCN(CCNS(C)(=O)=O)CC2)c2ccccc21				15.8 nM
CCCCCNC(=N)N/N=C/c1c[nH]c2ccc(OC)cc12 [TEGASEROD]			31 nM	
